# Patent US20210205260A1, “MP53 RESCUE COMPONDS AND METHODS OF TREATING A P53 DISORDER” (priority 2018, published 2021)
# Tests used:
# [1] = Representative effective dose in humans (Table 16); format: in vivo, human; conditions: oral
# Description: The PANDA Agent comprising a three and/or five valence arsenic is generally effective in treating cancer in a human at a wide range of dosages by intravenous injection and oral administration.
# The PANDA Agent comprising a three and/or five valence antimony is generally effective in treating cancer in a human at a wide range of dosages by intravenous injection and oral administration. In certain embodiments, the effective dose results in a maximum Sb concentration in the patient's blood (plasma) from about 3.58 mg/L to about 357.5 mg/L, preferably from about 3.58 mg/L to about 179 mg/L, more preferably from about 7.15 mg/L to about 179 mg/L, more preferably from about 7.15 mg/L to about 107 mg/L, more preferably from about 12 mg/L to about 107 mg/L, more preferably from about 32.7 to about 38.8 mg/L. In certain embodiments, the daily dose is from about 20 mg/kg, wherein the maximum Sb concentration is from about 32.7 mg/L to about 38.8 mg/L, and wherein the platform Sb concentration in blood (plasma) is about 3.5 mg/L.
# The PANDA Agent comprising a three and/or five valence bismuth is generally effective in treating cancer in a human at a wide range of dosages by intravenous injection and oral administration. In certain embodiments, the effective dose results in a maximum Bi concentration in the patient's blood (plasma) from about 3 mg/L to about 300 mg/L, preferably from about 3 mg/L to about 150 mg/L, more preferably from about 6 mg/L to about 150 mg/L, more preferably from about 6 mg/L to about 90 mg/L, more preferably from about 10 mg/L to about 90 mg/L, more preferably from about […]. In certain embodiments, the daily dose is from about 20 mg/kg, wherein the maximum Bi concentration is from about 32.7 mg/L to about 38.8 mg/L, and wherein the platform Bi concentration in blood (plasma) is about 3.5 mg/L.
# [2] = Representative effective dose for mouse studies (Table 15); format: in vivo; conditions: oral
# Description: The PANDA Agent comprising a three and/or five valence arsenic is generally effective in treating cancer in a subject, including an animal, at a dose at a wide range of dosages by intravenous injection and oral administration. In certain embodiments, the daily dosage is from about 0.5 mg/kg to about 50 mg/kg, preferably from about 0.5 mg/kg to about 25 mg/kg, more preferably from about 1 mg/kg to about 25 mg/kg, more preferably from about 1 mg/kg to about 15 mg/kg, more preferably from about 1.7 mg/kg to about 15 mg/kg, and more preferably from about 1.7 mg/kg to about 5 mg/kg. In certain embodiments, the dose is about 5 mg/kg. In certain embodiments, the PANDA Agent ATO is administered by intravenous injection or by oral administration at 1 mg/ml concentration, at a dose of 5 mg/kg per day.
# In other embodiments, the daily dosage is from about 10 mg/kg to about 1000 mg/kg, preferably from about 10 mg/kg to about 500 mg/kg, more preferably from about 20 mg/kg to about 500 mg/kg, more preferably from about 20 mg/kg to about 300 mg/kg, more preferably from about 33 mg/kg to about 300 mg/kg, and more preferably from about 33 mg/kg to about 100 mg/kg. In certain embodiments, the dose is about 100 mg/kg. In certain embodiments, the PANDA Agent As2S2, As2S3, As2S5, and As4S4 is administered by oral administration at 15 mg/L concentration, at a dose of 100 mg/kg
# (§1) The PANDA Agent comprising a three valence and/or five valence antimony is generally effective in treating cancer in a subject, including an animal, at a dose at a wide range of dosages by intravenous injection and oral administration. In certain embodiments, dosage is from about 60 mg/kg to about 6000 mg/kg, preferably from about 60 mg/kg to about 3000 mg/kg, more preferably from about 120 mg/kg to about 3000 mg/kg, more preferably from about 120 mg/kg to about 1500 mg/kg, more preferably from about 150 mg/kg to about 1200 mg/kg, and more preferably from about 300 mg/kg to about 1200 mg/kg. In certain embodiments, the dose is about 600 mg/kg. In certain embodiments, the PANDA Agent is administered by intravenous or oral administration at 100 mg/ml concentration, at a dose of 600 mg/kg per day.
# as §1, with “bismuth” for “antimony”, “embodiments, the daily” for “embodiments,”, “In certain embodiments, the dose is about 600 mg/kg. In certain embodiments, the PANDA Agent is administered by intravenous or oral administration at 100 mg/ml concentration, at a dose of 600 mg/kg per day.” left out
# APL patients = conditions: orally administrated; cited from earlier work
# p53 = test: Inductively coupled plasma mass spectroscopy (ICP-MS), arsenic per p53; format: binding
# Description: We further discovered that elemental arsenic, elemental bismuth, elemental antimony, and compounds containing elemental arsenic, bismuth, and/or antimony are good rescue compounds for mp53. […] The arsenic-, bismuth-, and antimony-mediated mp53 rescue is achieved by binding of the released arsenic, bismuth, and antimony to mp53. […] The arsenic-, bismuth-, and antimony-mediated mp53 rescue also elevates mp53 Tm. […] Moreover, these rescue compounds can also rescue one or more mp53s.
# mp53 [3] = test: Functional rescuability of indicated mp53s (Luciferase, qPCR and/or Western blot); format: cell-based, human; conditions: for Func. Res: Table 9, functionally rescuable by PANDA Agent ATO, label = mp53; for Func. Res. (whether the mp53 is functionally rescuable): Table 8, label = mp53 mutation, rescue agent ATO
# Description: (§2) For p53 folding assay, H1299 cells transfected with indicated TP53 were treated with 1 μg/ml ATO for 2 hr, and cells were lysed followed by immunoprecipitation using PAb1620. Immunoprecipitated p53 was immunoblotted. Experiments are repeated twice. For p53 transcriptional activity assay, H1299 cells were co-transfected with indicated TP53 and PUMA reporter for 24 hr, followed by treatment of 1 μg/ml ATO for 24 hr. […] X-axis: PAb1620 IP efficiency; Y-axis: PUMA luciferase report signal. Hollow cycles: without ATO treatment; solid cycles: with ATO treatment.
# Cells were plated at a concentration of 2×10^4 cells/well in 24-well plates, followed by transfection of luciferase reporter plasmids for 24 hr. All transfection contained 300 ng p53 expressing plasmid, 100 ng of luciferase reporter plasmid and 5 ng of renilla plasmid per well. After agent treatment, cells were lysed in luciferase reporter assay buffer and determined using a luciferase assay kit (Promega). Activities of luciferase were divided by that of renilla to normalize the transfection efficiency.
# Total RNA was isolated from cells using Total RNA Purification Kit (B518651, Sangon Biotech). 1 μg total RNA was reverse-transcribed using the GoScript®™ Reverse Transcriptase System (A5001, Promega) following manufacturer's protocol. PCR was performed in triplicate using SYBR green mix (Applied Biosystems), and a ViiA™ 7 Real-Time PCR System (Applied Biosystems) under the following conditions: 10 min at 95° C. followed by 40 cycles of 95° C. for 15 s and 60° C. for 1 min. Specificity of the PCR product was checked for each primer set and samples from the melting curve analysis. Expression levels of targeted genes were normalized relative to levels of β-actin adopting comparative Ct method. The primer sequences are as follows: MDM2 forward 5′-[…]-3′, reverse 5′-[…]-3′; PIG3 forward 5′-[…]-3′, reverse 5′-[…]-3′; PUMA forward 5′-[…]-3′, reverse 5′-[…]-3′; p21 forward 5′-[…]-3′, reverse 5′-[…]-3′; Bax forward 5′-[…]-3′, reverse 5′-[…]-3′; #-actin forward 5′-[…]-3′, reverse 5′-[…]-3′.
# mp53 [4] = test: PAb1620 immunoprecipitation, structural rescuability of indicated mp53s (with/without ATO); format: cell-based, human; conditions: for Str. Res: Table 9, structurally rescuable by PANDA Agent ATO, label = mp53; for 1620 TP (PAb1620 immunoprecipitation efficiency): presence vs absence of ATO, cell line not indicated in this part of Table 9; for Str. Res. (whether the mp53 is structurally rescuable): Table 8, label = mp53 mutation, rescue agent ATO
# Description: as §2
# NP40 buffer at room temperature.
# mp53 [5] = test: mp53 rescue profile (either structurally or functionally rescuable); format: cell-based, human; conditions: Table 8; label = mp53 mutation; rescue agent ATO
# [6] = presence vs absence of ATO, cell line not indicated
Compound,Maximun Metal concentration in blood (plasma) [1] [mg/L],Platform Metal concentration in blood (plasma) [1],Representative effective dose: Dose per day [1] [mg/kg],Representative effective dose: Dose per day [2] [mg/kg],Func. Res (mp53 [3]),Luciferase Assay PUMA (mp53 [3]; [6]) [fold],Str. Res (mp53 [4]),1620 TP (PAb1620 immunoprecipitation efficiency) (mp53 [4]) [fold],also measured
S=[As][As]=S (centres unmarked) [As2S2],0.57 to 1.31,0.03 to 0.07 mg/L,2.80,100,,,,,
S=[As]S[As]=S (centres unmarked) [As2S3],0.57 to 1.31,0.03-0.07 L mg/L,3.20,100,,,,,
S=[As](=S)S[As](=S)=S [As2S5],,,4.05,100,,,,,
"S1[As]2S[As]3S[As]2S[As]13 [As4S4, reference compound]",0.57 to 1.31,0.03 to 0.07 mg/L,2.80,100,,,,,efficacy in treating APL patients (in words) (APL patients): as effective as conventional intravenous ATO
[AsH3] [arsenic],,,,,,,,,arsenic bound per p53 (ICP-MS) (p53): 0.93±0.19 arsenic per p53
D281H,,,,,"Yes (the PANDA Agent can rescue one or more of the mp53's wild type function to a 1.5 fold or more, as measured by luciferase assay, qPCR, or Western blot)",2.2,"Yes (can be rescured by the PANDA Agent ATO, as measured to a 1.5 fold or more increase in PAb1620 immunoprecipitation signal)",2.1,
H179P,,,,,,,,,Func. Res. (whether the mp53 is functionally rescuable) (mp53 [3]): Yes; Res. (either structurally or functionally rescuable) (mp53 [5]): Yes; Str. Res. (whether the mp53 is structurally rescuable) (mp53 [4]): Yes
H179R,,,,,"Yes (the PANDA Agent can rescue one or more of the mp53's wild type function to a 1.5 fold or more, as measured by luciferase assay, qPCR, or Western blot)",1.8,"Yes (can be rescured by the PANDA Agent ATO, as measured to a 1.5 fold or more increase in PAb1620 immunoprecipitation signal)",4.6,Luciferase Assay CDKNIA (mp53 [3]; [6]): 1.0 fold
R283H,,,,,"Yes (the PANDA Agent can rescue one or more of the mp53's wild type function to a 1.5 fold or more, as measured by luciferase assay, qPCR, or Western blot)",1.6,"Yes (can be rescured by the PANDA Agent ATO, as measured to a 1.5 fold or more increase in PAb1620 immunoprecipitation signal)",1.6,Func. Res. (whether the mp53 is functionally rescuable) (mp53 [3]): Yes; Res. (either structurally or functionally rescuable) (mp53 [5]): Yes; Str. Res. (whether the mp53 is structurally rescuable) (mp53 [4]): Yes
